From US6482809B1, “Use of tiludronic acid and derivatives thereof in poultry for the preparation of a medicinal product for preventing and treating osteoporosis” (Ceva Sante Animale, priority 2000, dated 2002)

Key:
[1] = system: trabecular bone of the tarsometatarsal bone of hens; experiment: Histomorphometric examination of trabecular bone volume of the tarsometatarsal bone after a single subcutaneous administration; type: in vivo, hens of ISA Brown strain
Method: (§1) A total number of 216 hens of ISA Brown strain between 15 and 17 weeks old was divided into 3 groups for the purpose of evaluating the effects on bone of a single subcutaneous administration of tiludronic acid, in the form of its sodium salt (disodium tiludronate).
(§2) Three doses were compared: 0, 1 and 10 mg/kg (corresponding amount of tiludronic acid/kg). The tiludronic acid was administered in the form of injectable aqueous solutions such that the volume injected per bird was 1 ml per kilo of live weight. The tiludronic acid solutions were thus concentrated to 0.1% and 1% for the doses of 1 and 10 mg/kg, respectively. The control group received a placebo corresponding to water for an injectable preparation. The injections were performed subcutaneously in the region above the superficial pectoral muscle.
(§3) The hens were housed in individual cages in the same building at controlled temperature and hygrometry. Each animal was identified by a number carried on a ring attached to a wing. They received the same standard feed for laying hens, freely throughout the duration of the study. The drinking water was also distributed freely.
(§4) The average age of onset of laying for the hens in this strain is 20 weeks. Consequently, the average delay between the treatment and the age of onset of laying had to be from 3 to 5 weeks. The duration of the study was 40 weeks. At the end of the study, the hens were 55 weeks old.
(§5) Half of the total number was sacrificed on laying the first egg, in order to carry out a histomorphometric examination performed on a decalcified section of the proximal region of one of the tarsometatarsal bones in order to measure the trabecular and medullary bone volumes.
(§6) The other half of the total number of hens was monitored up to 55 weeks of age (i.e. after about 34 weeks of laying), at which point all the remaining animals were sacrificed. The same bone examination was carried out on these animals as on the hens sacrificed after laying the first egg.
(§7) The bone parameters were compared by means of a one-factor variance analysis (dose factor).
(§8) The histomorphometric examination carried out allows the changes in the structure of the bone to be assessed.

[2] = system: medullary bone of the tarsometatarsal bone of hens; experiment: Histomorphometric examination of medullary bone volume of the tarsometatarsal bone after a single subcutaneous administration; type: in vivo, hens of ISA Brown strain
Method: as §1, §2, §3, §4, §5, §6, §7, §8

[3] = system: osteoporosis in menopausal women; conditions: 50 or 200 mg per person orally; cited from earlier work
[4] = system: trabecular bone of laying hens; conditions: cited from earlier work
[5] = system: medullary bone of laying hens; conditions: 18 weeks after the onset of laying; treated before the onset of laying; cited from earlier work
[6] = system: egg production of laying hens; conditions: administered during laying; decrease or even stoppage of laying as a function of the dose; cited from earlier work
[7] = at 55 weeks old, 1 mg/kg single subcutaneous injection
[8] = at 55 weeks old, 10 mg/kg single subcutaneous injection

| Compound | Trabecular bone loss during laying ([1]; 1 mg/kg, onset of laying to 55 weeks old) | Trabecular volume versus controls ([1]; at 55 weeks of age, 10 mg/kg) | Trabecular bone volume of the tarsometatarsal bone [1, 7] [%] | Trabecular bone volume of the tarsometatarsal bone [1, 8] [%] | Variation of trabecular bone volume between the two periods ([1]; onset of laying to 55 weeks old, 1 mg/kg) | Variation of trabecular bone volume between the two periods ([1]; onset of laying to 55 weeks old, 10 mg/kg) [%] | Trabecular bone volume of the tarsometatarsal bone ([1]; onset of laying, 1 mg/kg single subcutaneous injection at 15-17 weeks old) [%] | Gain in trabecular bone volume compared with the controls ([1]; onset of laying, 10 mg/kg) [%] | Trabecular bone volume of the tarsometatarsal bone ([1]; onset of laying, 10 mg/kg single subcutaneous injection at 15-17 weeks old) [%] | Average medullary bone volumes, comparison between the groups ([2]; at 55 weeks old, 0, 1 and 10 mg/kg) | Volume of medullary bone of the tarsometatarsal bone [2, 7] [%] | Medullary bone volume higher than that in the control animals ([2]; at 55 weeks old, 10 mg/kg) [%] | Volume of medullary bone of the tarsometatarsal bone [2, 8] [%] | Medullary bone volumes, comparison between the groups ([2]; onset of laying, 0, 1 and 10 mg/kg) | Efficacy in osteoporosis in menopausal women [3] | Trabecular bone volume higher than that of the control hens ([4]; after laying for 18 weeks, 0.01 mg/kg s.c., 6 administrations (total 0.06 mg/kg) from 14 weeks old) | Trabecular bone volume higher on average in the treated hens than in the control hens ([4]; onset of laying, 0.01 mg/kg subcutaneously, repeated before laying) [%] | Medullary bone volume less than that of the control animals [5] | Effect on egg production [6] |
| --- | --- | --- | --- | --- | --- | --- | --- | --- | --- | --- | --- | --- | --- | --- | --- | --- | --- | --- | --- |
| tiludronic acid | no trabecular bone loss took place during laying | significantly higher than that of the controls | 11.3 ± 2.5 | 12.0 ± 2.0 | +4% | −12 | 10.9 ± 2.9 | 12 | 13.7 ± 3.3 | not significantly different between the groups | 2.75 ± 2.72 | 20 | 3.53 ± 3.04 | does not reveal any significant difference between the groups | not demonstrated their efficacy | – | – | – | – |
| NCCCC(O)(P(=O)(O)O)P(=O)(O)O [alendronic acid] | – | – | – | – | – | – | – | – | – | – | – | – | – | – | – | about 35% | ≤ 30 | about 20% | harmful effect on egg production |
